The text below walks through data of US5601806A, “Methods for scavenging active oxygen compounds and preventing damage from ultra violet B rays using taurine analogues” (Sogo Pharmaceutical Company Limited, priority 1991, dated 1997).

Assay [1] relates to tyrosinase. In words: Tyrosine oxidation preventing effect (tyrosine oxide polymer production). In kind it is biochemical. Particulars: Indoors.
Assay [2] deals with tyrosinase. Described as above. Particulars: Ultraviolet rays. In kind it is biochemical. The protocol: In a quartz cell was put 1 ml of L-tyrosine (30 mg/100 ml), 1 ml of a tris buffer solution and 0.9 ml of a test solution (6.25×1/10^2 mol/l-1 mol/l), and the mixture was allowed to stand under radiation from an ultraviolet lamp at 37° C. for 10 minutes. Following this, 0.1 ml of tyrosinase (2000 units/ml) were added thereto, and further irradiated under an ultraviolet lamp at 37° C. for 30 minutes, after which the production of tyrosine oxide polymers was measured at 475 nm.

The conditions of assay [3]: alloxan; cited from earlier work.
For the next assay, the system named is XOD. In words: Inhibition of XOD reaction by SOD (system (3) of SOD activating method). In kind it is biochemical. Particulars: SOD 0.1 ml. The text has this:
Next, a measurement was made of the SOD activating function.
(3) System for inhibiting XOD reaction with SOD. XOD reaction was 20%

The conditions of assay [4]: applied externally to the skin; cited from earlier work.

Consider `N=C(N)NCCS(=O)(O)=S` [thiotaurocyamine], for which the “Inhibition rate (tyrosine oxidation)” value in the assay on tyrosinase [1] (1 mol/l) amounted to 91.5%; in the assay on tyrosinase [1] (1.25 × 10^-1 mol/l) it was 36.8%; in the assay with tyrosinase [1] (2.5 × 10^-1 mol/l), 61.7%; in the assay with tyrosinase [1] (5 × 10^-1 mol/l) it was 87.7%; in the assay on tyrosinase [1] (6.25 × 10^-2 mol/l), 12.8%; in the assay on tyrosinase [2] (1 mol/l) it was 96.6%. Further, the “Inhibition rate (tyrosine oxidation)” value in the assay on tyrosinase [2] (1.25 × 10^-1 mol/l) is 88.2%; in the assay on tyrosinase [2] (2.5 × 10^-1 mol/l) it was 92.8%; with tyrosinase [2] (5 × 10^-1 mol/l) it was 92.4%; in the assay with tyrosinase [2] (6.25 × 10^-2 mol/l) it was 78.0%.
For the compound catalase, the symptoms of diabetes entry in assay [3] was “suppressed”.
In the case of superoxide dismutase [SOD], the symptoms of diabetes entry in assay [3] is recorded as “suppressed”. Further, in the assay with XOD, the “XOD reaction inhibited by SOD” value stood at 20%. Moreover, in assay [4], the “amount of lipid peroxides in the epidermis due to UV rays” value is on record as “lowering the amount of lipid peroxides (LPO) in the epidermis due to UV rays”.
